The nature of the data set: Validation in adult cohort of the VANISH trial randomized to hydrocortisone or placebo (n=97). The class given is in vivo, human. To be noted: adult VANISH subset; controlled for illness severity using the APACHE score; lower Z values. As to the method: The model was also tested using a publicly available transcriptomic data set from the Vasopressin vs. Norepinephrine as Initial Therapy for Septic Shock (VANISH) trial (9, 23). The VANISH trial compared the efficacy of vasopressin to norepinephrine as initial vasopressor therapy for septic shock among adults. Patients who reached a prespecified dose of either vasopressor were further randomized to receive hydrocortisone or placebo. Details of the procedures for assigning the cohort randomized to hydrocortisone or placebo to pediatric endotypes A or B were previously described (10, 15).
The findings above were further validated using a subset of adult subjects from the VANISH trial who were randomized to placebo or hydrocortisone, and for whom there existed publicly available transcriptomic data (n=97). […] The model supports that separation between groups treated with hydrocortisone and those treated with placebo occurs as the Z value decreases.

Consider `C[C@]12CCC(=O)C=C1CC[C@@H]1[C@@H]2[C@@H](O)C[C@@]2(C)[C@H]1CC[C@]2(O)C(=O)CO` [hydrocortisone], for which the “Odds of death at 28 days by hydrocortisone exposure and Z value” was “no hydrocortisone exposure and lower Z values tended to have lower odds of death at 28 days”.

Source of the values: US20240209445A1, “A CONTINUOUS METRIC TO MEASURE ENDOTYPE AND CORTICOSTEROID INTERACTION IN SEPTIC SHOCK” (CHILDREN'S HOSPITAL MEDICAL CENTER, priority 2021, published 2024).
